Positions of bridges follow the written chain, without caps; N, C: chain ends. Non-standard residues stand in square brackets, D forms with d. Residues, ends and D or L forms follow the SMILES beside them. *: point of attachment. C18 diacid = O=C(O)CCCCCCCCCCCCCCCCC(=O)*; PEG5 = NCCOCCOCCOCCOCCOCCC(=O)O; PEG3 = NCCOCCOCCOCCC(=O)O; Dap = NC[C@H](N)C(=O)O
Target: T1, AM1R (Homo sapiens, UniProt O60895+Q16602)
T1 construct: EYFP; ECFP; expressed in transfected cells; host or cells: HEK-293 (transient co-transfection)
T1 sequence (Q16602 23-461): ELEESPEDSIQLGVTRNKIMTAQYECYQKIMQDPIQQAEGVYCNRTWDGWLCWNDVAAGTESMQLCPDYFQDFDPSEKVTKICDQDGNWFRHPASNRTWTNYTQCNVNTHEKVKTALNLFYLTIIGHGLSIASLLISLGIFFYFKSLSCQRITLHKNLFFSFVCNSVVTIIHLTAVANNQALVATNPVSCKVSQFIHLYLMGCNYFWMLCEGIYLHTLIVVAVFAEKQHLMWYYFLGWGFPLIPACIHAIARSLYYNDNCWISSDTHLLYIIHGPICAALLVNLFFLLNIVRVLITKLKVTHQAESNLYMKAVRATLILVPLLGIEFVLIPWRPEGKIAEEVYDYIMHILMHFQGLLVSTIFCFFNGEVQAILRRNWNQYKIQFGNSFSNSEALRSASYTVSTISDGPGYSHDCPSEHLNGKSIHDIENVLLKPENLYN
T1 sequence (O60895 43-175): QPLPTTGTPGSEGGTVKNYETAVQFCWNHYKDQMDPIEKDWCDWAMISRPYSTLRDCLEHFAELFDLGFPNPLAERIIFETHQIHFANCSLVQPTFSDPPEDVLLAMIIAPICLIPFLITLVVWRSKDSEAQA
Assay: Activity determination in vitro: cAMP/CRE-luciferase reporter assay in HEK293 cells transiently co-transfected with CLR and RAMP2
Type: cell-based
Details: for Emax: HEK293, normalized to [G14]ADM(14-52); for EC50: HEK293 with CLR/RAMP2, CRE-luciferase, 3 h stimulation
Outline: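 HEK-293 cells transiently co-transfected with CLR-EYFP, RAMP2-ECFP and a CRE-luc2P reporter, stimulated 3 h at 37° C with eight ligand concentrations in triplicate. Luminescence read by ONE-Glo, corrected to 5 μM forskolin, normalized to [G14]ADM(14-52) standard, and fitted by non-linear regression.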

SMILES	Emax	EC50
CC[C@H](C)[C@H](NC(=O)[C@H](CCC(N)=O)NC(=O)[C@H](Cc1c[nH]cn1)NC(=O)[C@H](C)NC(=O)[C@H](CC(C)C)NC(=O)[C@H](CCCCN)NC(=O)[C@H](CCC(N)=O)NC(=O)[C@@H](NC(=O)[C@@H](NC(=O)[C@@H]1CSSC[C@H](NC(=O)CNC(=O)CN)C(=O)N[C@@H](CCCNC(=N)N)C(=O)N[C@@H](Cc2ccccc2)C(=O)NCC(=O)N[C@@H]([C@@H](C)O)C(=O)N1)[C@@H](C)O)C(C)C)C(=O)N[C@@H](Cc1ccc(O)cc1)C(=O)N[C@@H](CCC(N)=O)C(=O)N[C@@H](Cc1ccccc1)C(=O)N[C@H](C(=O)N[C@@H](CC(=O)O)C(=O)NCCOCCOCCOCCC(=O)N[C@@H](CC(N)=O)C(=O)N[C@H](C(=O)N[C@@H](C)C(=O)N1CCC[C@H]1C(=O)N[C@@H](CCCNC(=N)N)C(=O)N[C@@H](CO)C(=O)N[C@@H](CCCCN)C(=O)N[C@H](C(=O)N[C@@H](CO)C(=O)N1CCC[C@H]1C(=O)N[C@@H](CCC(N)=O)C(=O)NCC(=O)N[C@@H](Cc1ccc(O)cc1)C(N)=O)[C@@H](C)CC)C(C)C)[C@@H](C)O [Example 9, ((4R,7S,13S,16S,19R)-19-(2-(2-aminoacetamido)acetamido)-13-benzyl-16-(3-guanidinopropyl)-7-((R)-1-hydroxyethyl)-6,9,12,15,18-pentaoxo-1,2-dithia-5,8,11,14,17-pentaazacycloicosane-4-carbonyl)-L-threonyl-ADM(23-35)-(3-(2-(2-(2-(λ^2-azaneyl)ethoxy)ethoxy)ethoxy)propanoyl)-L-asparagyl-ADM(41-52)] (H-GGCRFGTCTVQKLAHQIYQFTD[PEG3]NVAPRSKISPQGY-NH2; disulfide 3-8)	87 ± 4%	49 nM
CC[C@H](C)[C@H](NC(=O)[C@H](CCC(N)=O)NC(=O)[C@H](Cc1c[nH]cn1)NC(=O)[C@H](C)NC(=O)[C@H](CC(C)C)NC(=O)[C@H](CCCCN)NC(=O)[C@H](CCC(N)=O)NC(=O)[C@@H](NC(=O)[C@@H](NC(=O)[C@@H]1CSSC[C@H](NC(=O)CNC(=O)CN)C(=O)N[C@@H](CCCNC(=N)N)C(=O)N[C@@H](Cc2ccccc2)C(=O)NCC(=O)N[C@@H]([C@@H](C)O)C(=O)N1)[C@@H](C)O)C(C)C)C(=O)N[C@@H](Cc1ccc(O)cc1)C(=O)N[C@@H](CCC(N)=O)C(=O)N[C@@H](Cc1ccccc1)C(=O)N[C@H](C(=O)N[C@@H](CC(=O)O)C(=O)NCCOCCOCCOCCOCCOCCC(=O)N[C@@H](C)C(=O)N1CCC[C@H]1C(=O)N[C@@H](CCCNC(=N)N)C(=O)N[C@@H](CO)C(=O)N[C@@H](CCCCN)C(=O)N[C@H](C(=O)N[C@@H](CO)C(=O)N1CCC[C@H]1C(=O)N[C@@H](CCC(N)=O)C(=O)NCC(=O)N[C@@H](Cc1ccc(O)cc1)C(N)=O)[C@@H](C)CC)[C@@H](C)O [Example 12, ((4R,7S,13S,16S,19R)-19-(2-(2-aminoacetamido)acetamido)-13-benzyl-16-(3-guanidinopropyl)-7-((R)-1-hydroxyethyl)-6,9,12,15,18-pentaoxo-1,2-dithia-5,8,11,14,17-pentaazacycloicosane-4-carbonyl)-L-threonyl-ADM(23-35)-(1-(λ^2-azaneyl)-3,6,9,12,15-pentaoxaoctadecan-18-oyl)-L-alanyl-ADM(43-52)] (H-GGCRFGTCTVQKLAHQIYQFTD[PEG5]APRSKISPQGY-NH2; disulfide 3-8)	79 ± 5%	431 nM
CC[C@H](C)[C@H](NC(=O)[C@H](CCC(N)=O)NC(=O)[C@H](Cc1c[nH]cn1)NC(=O)[C@H](C)NC(=O)[C@H](CC(C)C)NC(=O)[C@H](CCCCN)NC(=O)[C@H](CCC(N)=O)NC(=O)[C@@H](NC(=O)[C@@H](NC(=O)[C@@H]1CCC(=O)NC[C@H](NC(=O)CNC(=O)[C@@H](N)CCCCNC(=O)CCCCCCCCCCCCCCCCC(=O)O)C(=O)N[C@@H](CCCNC(=N)N)C(=O)N[C@@H](Cc2ccccc2)C(=O)NCC(=O)N[C@@H]([C@@H](C)O)C(=O)N1)[C@@H](C)O)C(C)C)C(=O)N[C@@H](Cc1ccc(O)cc1)C(=O)N[C@@H](CCC(N)=O)C(=O)N[C@@H](Cc1ccccc1)C(=O)N[C@H](C(=O)NCCOCCOCCOCCC(=O)N[C@@H](CC(=O)O)C(=O)N[C@@H](CC(N)=O)C(=O)N[C@H](C(=O)N[C@@H](C)C(=O)N1CCC[C@H]1C(=O)N[C@H]1CCCCNC(=O)C[C@@H](C(=O)N2CCC[C@H]2C(=O)N[C@@H](CCC(N)=O)C(=O)NCC(=O)N[C@@H](Cc2ccc(O)cc2)C(N)=O)NC(=O)[C@H]([C@@H](C)CC)NC(=O)[C@H](CCCCN)NC(=O)[C@H](CO)NC1=O)C(C)C)[C@@H](C)O [Example 17] (H-K(C18 diacid)G[Dap]RFGTETVQKLAHQIYQFT[PEG3]DNVAPKSKIDPQGY-NH2; lactam 3-8, 28-32)	77 ± 3%	5 nM

The remaining compounds from weak to strong by EC50, led by results:

Emax	EC50	SMILES
105 ± 5%	17 nM	CC[C@H](C)[C@H](NC(=O)[C@H](CCC(N)=O)NC(=O)[C@H](Cc1c[nH]cn1)NC(=O)[C@H](C)NC(=O)[C@H](CC(C)C)NC(=O)[C@H](CCCCN)NC(=O)[C@H](CCC(N)=O)NC(=O)[C@@H](NC(=O)[C@@H](NC(=O)[C@@H]1CSSC[C@H](NC(=O)CNC(=O)[C@@H](N)CCCCNC(=O)CCCCCCCCCCCCCCCCC(=O)O)C(=O)N[C@@H](CCCNC(=N)N)C(=O)N[C@@H](Cc2ccccc2)C(=O)NCC(=O)N[C@@H]([C@@H](C)O)C(=O)N1)[C@@H](C)O)C(C)C)C(=O)N[C@@H](Cc1ccc(O)cc1)C(=O)N[C@@H](CCC(N)=O)C(=O)N[C@@H](Cc1ccccc1)C(=O)N[C@H](C(=O)N[C@@H](CC(=O)O)C(=O)N[C@@H](CCCCN)C(=O)N[C@@H](CC(=O)O)C(=O)N[C@@H](CCCCN)C(=O)N[C@@H](CC(=O)O)C(=O)N[C@@H](CC(N)=O)C(=O)N[C@H](C(=O)N[C@@H](C)C(=O)N1CCC[C@H]1C(=O)N[C@@H](CCCNC(=N)N)C(=O)N[C@@H](CO)C(=O)N[C@@H](CCCCN)C(=O)N[C@H](C(=O)N[C@@H](CO)C(=O)N1CCC[C@H]1C(=O)N[C@@H](CCC(N)=O)C(=O)NCC(=O)N[C@@H](Cc1ccc(O)cc1)C(N)=O)[C@@H](C)CC)C(C)C)[C@@H](C)O [Example 5, ((4R,7S,13S,16S,19R)-19-(2-((S)-2-amino-6-(17-carboxyoctadecanamido)hexanamido)acetamido)-13-benzyl-16-(3-guanidinopropyl)-7-((R)-1-hydroxyethyl)-6,9,12,15,18-pentaoxo-1,2-dithia-5,8,11,14,17-pentaazacycloicosane-4-carbonyl)-L-threonyl-ADM(23-52)]
99 ± 1%	3.5 nM	CC[C@H](C)[C@H](NC(=O)[C@H](CCC(N)=O)NC(=O)[C@H](Cc1c[nH]cn1)NC(=O)[C@H](C)NC(=O)[C@H](CC(C)C)NC(=O)[C@H](CCCCN)NC(=O)[C@H](CCC(N)=O)NC(=O)[C@@H](NC(=O)[C@@H](NC(=O)[C@@H]1CSSC[C@H](NC(=O)CNC(=O)CN)C(=O)N[C@@H](CCCNC(=N)N)C(=O)N[C@@H](Cc2ccccc2)C(=O)NCC(=O)N[C@@H]([C@@H](C)O)C(=O)N1)[C@@H](C)O)C(C)C)C(=O)N[C@@H](Cc1ccc(O)cc1)C(=O)N[C@@H](CCC(N)=O)C(=O)N[C@@H](Cc1ccccc1)C(=O)N[C@H](C(=O)N[C@@H](CC(=O)O)C(=O)N[C@@H](CCCCN)C(=O)N[C@@H](CC(=O)O)C(=O)N[C@@H](CCCCN)C(=O)N[C@@H](CC(=O)O)C(=O)N[C@@H](CC(N)=O)C(=O)N[C@H](C(=O)N[C@@H](C)C(=O)N1CCC[C@H]1C(=O)N[C@@H](CCCNC(=N)N)C(=O)N[C@@H](CO)C(=O)N[C@@H](CCCCN)C(=O)N[C@H](C(=O)N[C@@H](CO)C(=O)N1CCC[C@H]1C(=O)N[C@@H](CCC(N)=O)C(=O)NCC(=O)N[C@@H](Cc1ccc(O)cc1)C(N)=O)[C@@H](C)CC)C(C)C)[C@@H](C)O [Reference, reference compound]

From patent US20220387608A1, “ADRENOMEDULLIN-ANALOGUES FOR LONG-TERM STABILIZATION AND THEIR USE” (Bayer Aktiengesellschaft, priority 2019, published 2022)
